These are literature values, as cited in patent US20230139125A1, “DIETARY SUPPLEMENT FOR IMPROVING BRAIN PERFORMANCE” (priority 2021, published 2023).

The test system of one series is age-related memory loss. Conditions: end of six-month period; participants with relatively low memory scores at start; compared to placebo.
The test system of series [1] is brain-derived neurotrophic factor (i.e. BDNF). Conditions: ingesting small amounts.

Consider Phosphatidylserine [PS], for which, in the series on age-related memory loss, the memory result is listed as “significant improvement in memory”.
As to chlorogenic acids, the “brain-derived neurotrophic factor (i.e. BDNF)” value in series [1] is recorded as “not obtained”.
